The record followed here is patent US11351130B2, “Prevention and reversal of inflammation induced DNA damage” (Indiana University Research and Technology Corporation, priority 2017, dated 2022).

In series [1] the target is T1, APE1 (Homo sapiens, UniProt P27695). As to the kind of experiment: AP endonuclease DNA repair assay. Format: biochemical. The settings on record: APX2009 in the nanomolar range. The procedure: Inhibition or enhancement of APE1 DNA repair endonuclease activity was performed as previously described (Bapat et al., 2010). The APE1 repair activity assay was performed in a plate assay using two annealed oligonucleotides (5′-6-FAM-GCCCCC*[…]-3′ (SEQ ID NO:3) and 3′-Q-[…]-5′ (SEQ ID NO:4)) containing a quencher on one strand and a fluorescent 6-FAM label with tetrahydrofuran as an AP site mimic. Oligo cleavage at the AP mimic site results in 6-FAM release and detection. The fluorescence was read at five, one-minute intervals using a Tecan Ultra plate reader (Chemical Genomics Core, Indiana University School of Medicine). The rate of the reaction was used to determine the change in APE1 repair activity as compared to the vehicle control.

Series [2] relates to sensory neurons in culture. Format: cell-based, rat. The following applies: for effect on cisplatin-induced reduction in capsaicin-evoked CGRP release / CGRP release, drug alone: 10 μM; for effect on cisplatin-induced reduction in capsaicin-evoked CGRP release: 72 hour treatment, 10 μM cisplatin; for capsaicin-stimulated release of CGRP, drug alone: 20 μM. The procedure:
(§1) Primary cultures of sensory neurons were harvested and maintained as previously described (Vasko et al., 2005). Briefly, adult male Sprague-Dawley rats (150-175 g; Harlan, Indianapolis, Ind.) were euthanized by CO2 asphyxiation and dorsal root ganglia (DRG) dissected from all spinal levels, transferred to into a collagenase solution (1 mg/ml), incubated for 1 hour at 37° C., then dissociated by mechanical agitation. Approximately 30,000 cells or 60,000 cells were plated into each well of 12-well or 6-well culture plates, respectively. All culture dishes were precoated with poly-D-lysine and laminin. Cells were maintained in F-12 media supplemented with 10% horse serum, 2 mM glutamine, 100 μg/ml Normocin™, 50 μg/ml penicillin, 50 μg/ml streptomycin, 50 μM 5-fluoro-2′-deoxyuridine (Invitrogen), 150 μM uridine, and 30 ng/ml of NGF in 3% CO2 at 37° C. Growth medium was changed every other day. Experiments were performed after cells were maintained in culture for 12-14 days.
For release experiments, cell cultures were washed with HEPES buffer consisting of (in mM) 25 HEPES, 135 NaCl, 3.5 KCl, 2.5 CaCl2, 1 MgCl2, 3.3 D-glucose, and 0.1% bovine serum albumin, pH 7.4 and maintained at 37° C. They then were incubated for successive 10-minute intervals with 0.4 ml of HEPES buffer alone (basal release), with buffer containing 30 nM capsaicin, then with buffer alone (to assess return to basal release). After each incubation, the buffer was removed and the amount of immunoreactive calcitonin-gene related peptide (CGRP) in each sample was measured using radioimmunoassay (RIA) as previously described (Chen et al., 1996). At the end of the release protocol, CGRP is extracted from the cultures and total content measured using RIA.

Series [3] relates to sensory neuronal cultures. As to the kind of experiment: Neuronal cell viability (trypan blue exclusion). Format: cell-based. The settings on record: for effect on cisplatin-induced cell death: 20 μM for 48 hours prior to and throughout the cisplatin treatment (24 hours); for cell death, drug alone: 20 or 40 μM, 72 hours (data not shown). The procedure:
as §1
Sensory neuronal culture trypan blue exclusion analysis was performed as previously described (Vasko et al., 2011). Cells were detached by adding a 0.05% trypsin-EDTA solution and media to each well. An equal volume of 0.4% (w/v) trypan blue in PBS was added to the cell suspension and the numbers of living cells (i.e., those that exclude the dye) were counted under a phase contrast microscope using a hemacytometer. Percent survival was calculated as the percent of live cells divided by the total cell number (including dead and live cells).

A further series relates to NFκB. The experiment in a line: NF-κB luciferase reporter transactivation assay. Format: cell-based. The settings on record: read-out: inhibition of NFκB binding to the reporter construct, IC50. The procedure:
Reporter assays were performed as previously described (Georgiadis et al., 2008; Kelley et al., 2011; Cardoso et al., 2012b; Luo et al., 2012). Cells were transfected with NF-κB-Luciferase construct containing an NF-κB-response promoter and driving the expression of a luciferase gene and a Renilla luciferase control reporter vector pRL-CMV. After a 24-hour transfection period, cells were lysed, and Firefly and Renilla luciferase activities were assayed using Renilla luciferase activity for normalization. All of the transfection experiments were performed in triplicate and repeated at least three times in independent experiments. Data are expressed as mean±standard error from a representative experiment, and Student's t tests were performed.
A general note: In a reporter assay the amount or activity of a reporter protein is the signal.

Series [4] has as its system sensory neuronal cultures. As to the kind of experiment: phospho-H2AX immunoblotting in sensory neuronal cultures (Example 3). Format: cell-based, rat. The following applies: for effect on cisplatin-induced pH2AX levels (DNA damage): 20 μM for 48 hours prior to and throughout exposure to 10 μM cisplatin. The procedure:
as §1
Immunoblotting was performed as previously described (Kelley et al., 2014). Briefly, cells were lysed in RIPA buffer (Santa Cruz Biotechnology; Santa Cruz, Calif., USA) and protein was quantified using the Lowey assay. Proteins were separated by electrophoresis on a 4-12% SDS-polyacrylamide gel. The gel was transferred to a PVDF membrane and incubated overnight at 4° C. in Tris-buffered saline containing 0.1% Tween-20 (TBST) and 5% nonfat dry milk while gently agitating. Mouse monoclonal antihuman Ape1 antibodies (1:500), mouse monoclonal anti-phospho H2AX antibodies (1:1000), or (3-Actin monoclonal antibody (1:1000) were added to the blocking solution and incubated overnight at room temperature while gently agitating. Antibody binding was detected following appropriate secondary antibody methods using chemiluminescence. The density of the bands was measured using QUALITYONE® software from Bio-Rad (Hercules, Calif.) and data expressed as density normalized to actin.

The target in series [5] is T1, APE1. The experiment in a line: redox APE1 electrophoretic mobility shift assay (EMSA). Format: biochemical. Also noted: Purified APE1 was reduced with 1.0 mM DTT for 10 minutes. The settings on record: read-out: redox inhibition IC50. On the procedure: EMSAs were performed as described (Luo et al., 2012). Purified APE1 was reduced with 1.0 mM DTT for 10 minutes and diluted to a final concentration of 0.006 mM with 0.02 mM DTT in PBS. Reduced APE1 was added to EMSA reaction buffer (10 mM Tris (pH 7.5), 50 mM NaCl, 1 mM MgCl2, 1 mM EDTA, 5% [vol/vol] glycerol) with […] 0.007 mM protein mixture (1:1) of purified truncated c-Jun and c-Fos proteins containing DNA-binding domain and leucine zipper and incubated for 30 minutes at room temperature. The EMSA assay was performed as previously described (Luo et al., 2008; Nyland et al., 2010; Kelley et al., 2011; Luo et al., 2012).

The test system of series [6] is Pa03C patient-derived PDAC cells. The experiment in a line: Tumor and CAF 3D co-cultures, tumor cells. Format: cell-based, human. The following applies: tumor alone or co-cultured with CAFs, 12 days in culture, vs vehicle control. The source says: (§2) Patient-derived tumor cells and CAF19 cells were a kind gift from Dr. Anirban Maitra (The Johns Hopkins University M.D. Anderson Cancer Center) (Jones et al., 2008). All cell lines were authenticated via STR analysis (IDEXX BioResearch) and checked routinely for mycoplasma contamination. Ultra low attachment 96-well plates (Corning Inc., Life Sciences) were used to generate 3-dimensional tumor spheroids in the presence and absence of CAFs, as described previously (Sempere et al., 2011; Arpin, 2015). TdTomato-labeled PDAC cells and EGFP-labeled CAFs are resuspended in colorless DMEM media containing 3% Reduced Growth Factor Matrigel (BD Biosciences) and 5% FBS at a cell ratio of 1:4 (tumor:CAF) and fed on days 4 and 8 following plating. Both cell populations are quantitated for intensity and area via Thermo ArrayScan at day 12 of co-culture.

Series [7] in a line: P450 metabolism analysis using human microsomes. The following applies: human. Format: in vitro ADME. The procedure:
(§3) PK studies were performed in the IU Simon Cancer Center Clinical Pharmacology Analytical Core (CPAC), as previously described for E3330 (Fishel et al., 2011) and standards for the compounds used. P450 metabolism studies using human microsomes were also performed in CPAC directed by Dr. David Jones.

A further series relates to human microsomes. As to the kind of experiment: P450 metabolism analysis using human microsomes. Format: in vitro ADME. The following applies: vs E3330. On the procedure:
as §3

In a further series the test system is CAF19 cells. The experiment in a line: Tumor and CAF 3D co-cultures, CAFs. Format: cell-based, human. The settings on record: co-culture with tumor cells, 12 days in culture.
Source text: as §2

A short description of another series: Pharmacokinetics (PK). The following applies: in vivo. On the procedure: as §3

The structures appear in SMILES notation.

T1 sequence (P27695 whole entry, species assumed): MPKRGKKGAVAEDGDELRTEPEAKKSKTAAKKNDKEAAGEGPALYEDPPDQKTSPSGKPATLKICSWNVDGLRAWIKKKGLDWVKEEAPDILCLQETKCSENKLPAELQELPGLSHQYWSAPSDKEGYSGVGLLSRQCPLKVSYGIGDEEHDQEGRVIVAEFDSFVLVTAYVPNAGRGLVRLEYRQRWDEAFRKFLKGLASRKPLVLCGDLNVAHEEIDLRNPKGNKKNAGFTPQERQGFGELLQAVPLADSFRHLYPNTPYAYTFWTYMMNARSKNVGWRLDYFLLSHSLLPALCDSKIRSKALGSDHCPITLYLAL

As for `CCC/C(=C\C1=C(OC)C(=O)c2ccccc2C1=O)C(=O)N(C)C` [APX2007, (2E)-2-[(3-methoxy-1,4-dioxo-1,4-dihydronapthalen-2-yl)methylidene]-N,N-dimethylpentanamide], the “APE1 repair (endonuclease) activity” value at APE1 [1] is recorded as “no effect”. The “effect on cisplatin-induced reduction in capsaicin-evoked CGRP release” value (“effect on cisplatin-induced reduction” for short) in [2] is “did not prevent the cisplatin-induced reduction in release”. In series [2] (72 hours), the “CGRP release, drug alone” value is “did not affect CGRP release” and the “capsaicin-stimulated release of CGRP, drug alone” value is listed as “significant increase in capsaicin-stimulated release”. For the same compound, in series [3], the “effect on cisplatin-induced cell death” value is “did not attenuate the cisplatin-induced cell death” and the “cell death, drug alone” value is “significant increase in cell death”. In [3] (40 μM, 24 hours), the “cell viability, drug alone” value is recorded as “significant reduction in cell viability”. The IC50 (commonly the concentration that gives 50% inhibition) with NFκB amounted to 7 µM. In addition, in series [4], the “effect on cisplatin-induced pH2AX levels (DNA damage)” value (“effect … (DNA damage)” below) is given as “neither APX2007 nor APX2032 (20 μM) altered the ability of cisplatin to produce DNA damage”. Also, the IC50 at APE1 [5] is 2 µM.
Take `CCC/C(=C\C1=C(OC)C(=O)c2ccccc2C1=O)C(=O)N(CC)CC` [APX2009, (2E)-2-[(3-methoxy-1,4-dioxo-1,4-dihydronaphthalen-2-yl)methylidene]-N,N-diethylpentanamide]: the “tumor intensity and area in 3D spheroids” value in [6] is “statistical differences were observed for the tumor alone or tumor co-cultured with CAFs”. For the same compound, the “APE1 repair (endonuclease) activity” value on APE1 [1] is given as “stimulation of APE1 repair activity”. Besides, in series [2], the “effect on cisplatin-induced reduction” value is given as “did not prevent the cisplatin-induced reduction in release”. The “effect on oxaliplatin-induced decrease in CGRP release” value in [2] (48 hours prior to and throughout exposure to oxaliplatin for 24 hours) is recorded as “prevented the oxaliplatin-induced decrease in CGRP release”. Moreover, in series [2] (72 hours, E3330 20 μM, APX2009 10 or 20 μM, compared to untreated cells), the “basal (resting) release or release of CGRP stimulated by 30 nM capsaicin, drug alone” value is “no significant change”. Further, the half-life (in general, the time needed for the level to fall by half in the phase considered) in series [7] is 2.88 h; in “Pharmacokinetics (PK)” it was 25.8 h. Besides, the “half-life increase, P450 metabolism analysis” value in the series with human microsomes is 8.7 fold. In [3], the “effect on cisplatin-induced cell death” value was “blocked”. Besides, in [3] (10 or 20 μM, 72-hour treatment, oxaliplatin 24 hours), the “protection from oxaliplatin-induced cell killing” value was “protected the sensory neuronal cultures from cell killing”. In addition, in series [3] (24 hours, E3330 10, 20 or 40 μM, APX2009 various concentrations), the “cell death / cell viability, drug alone” value is on record as “did not result in a significant reduction in cell viability”. Moreover, in the series with CAF19 cells, the “CAF intensity and area in 3D spheroids” value is given as “not significantly affected”. The concentration for half-maximal inhibition (IC50) in the series on NFκB worked out at 7 µM; at APE1 [5], 1 µM. Besides, the “effect … (DNA damage)” value in [4] was “significantly reduced the levels of pH2AX”. Further, the “phosphorylation of H2AX after oxaliplatin” value in [4] (20 μM, 24 and 48 hr treatments of 30 μM oxaliplatin) is recorded as “significantly reduced the phosphorylation of H2AX”. The “half-life increase compared to E3330” value in the series “Pharmacokinetics (PK)” is given as roughly 7 fold.
Consider `COC1=C(/C=C(\C)C(=O)N(C)C)C(=O)c2ccccc2C1=O` [APX2032], for which the “APE1 repair (endonuclease) activity” value on APE1 [1] is “no effect”. Further, the “effect on cisplatin-induced reduction” value in series [2] is listed as “did block the effect of cisplatin”. Moreover, in series [2] (72 hours), the “CGRP release, drug alone” value is “did not affect CGRP release” and the “capsaicin-stimulated release of CGRP, drug alone” value is “significant increase in capsaicin-stimulated release”. Also, in series [3], the “effect on cisplatin-induced cell death” value is given as “did not attenuate the cisplatin-induced cell death” and the “cell death, drug alone” value is “significant increase in cell death”. For the same compound, the “cell viability, drug alone” value in series [3] (20 μM or 40 μM, 24 hours) was “significant reduction in cell viability”. Also, in the series on NFκB, the IC50 amounted to 7 µM. Also, in [4], the “effect … (DNA damage)” value is recorded as “neither APX2007 nor APX2032 (20 μM) altered the ability of cisplatin to produce DNA damage”. Besides, the concentration for half-maximal inhibition (IC50) at APE1 [5] stood at 1 µM.
